How the values were obtained:
[1] = test system: HUVECs; assay: 3D angiogenesis assay (cytodex beads in fibrin matrix); type: cell-based, human
Method: (A) ECs were seeded on fibrinogen matrix and were treated with sunitinib and compound 1 at indicated concentrations. Post 5 days of incubation pictures were taken at 10× using inverted microscope. (B) Tube length was quantified using Leica QWin software and graph was plotted taking control (0.01% DMSO) treated cells. Data are represented as mean±SEM with significant difference from control at *p<0.05, **p<0.01 and ***p<0.001.
Anti-angiogenic effect of Compound 1 was further validated by 3D angiogenesis assay (FIG. 5).
Endothelial cells (ECs) were trypsinized and then coated on cytodex beads at the rate of 1500 cells per bead in 5% DMEM medium at 37° C. for 4 h by rotating it gently on IP rotor. Fibrinogen (2 mg/mL) and Aprotonin (40 U/μL) were added to the ECs coated beads and this was subsequently added to the 96 well plate pre-coated with […] (10 U/μL) and incubated for 15 min. Vehicle control in 2.5% DMEM media with different doses of Compound 1 (500 nM, 250 nM, 125 nM and 75 nM) were used to observe the anti-angiogenic effect of Compound 1 on 3D angiogenesis pattern. Post 3 days of incubation the results were observed and photographs were taken under inverted microscope (Olympus, Centre Valley, Pa., USA) and relative tubule lengths were measured using Leica Q-Win software version 3.5.1. (Leica Microsystems, Switzerland).

[2] = test system: Endothelin-1 receptor; assay: Endothelin-1 induced contraction of isolated artery rings; design: species or system mice; conditions: for % contraction of aortic ring: ET-1 at 100 nM
Text: FIG. 15 represents effect of Compound 1 on endothelin-1 concentration-response curves. (A) Concentration-response curve of endothelin-1 in isolated carotid arteries of vehicle-treated (Control) and Compound 1 treated mice. (B) Concentration-response curve of endothelin-1 in isolated carotid arteries of vehicle-treated (Control) and compound 3 along with compound 8 treated mice.
To test for the selectivity of the putative Endothelin-1 receptor, we applied endothelin-1 or Compound 1 in a concentration dependent manner to the […] to observe its contraction inhibition activity (FIG. 15).

[3] = test system: Src-kinase; assay: Immunoblotting of treated HUVECs, Src-kinase; type: cell-based, human; conditions: 250 nM, 6 h
Method: (A) Serum-starved HUVECs were treated with control (0.1% DMSO), sunitinib and Compound 1 at a given concentrations and then incubated for 6 h. The expression level of phospho-VEGFR2 and GAPDH (housekeeping protein) was analyzed by immunoblotting. (B) Blots were quantified with Image-J software and the bar graphs represent the relative density of phospho-VEGFR2 normalized with GAPDH and the data are represented as mean±SEM with significant difference compared with control at *p<0.05. (D) Protein angiogenesis array showing up-regulation of anti-angiogenic protein and down-regulation of pro-angiogenic proteins on endothelial cell treated with Compound 1 at 260 nM.
Whole cell lysates of endothelial cells at 6 h of treatment with Compound 1 (250 nM) and sunitinib (50 nM) were prepared using the RIPA-lysis buffer. Proteins were fractionated and resolved on 8% SDS-PAGE gels and transferred onto PVDF membranes (Millipore). After incubation in blocking buffer (5% BSA in 1×TBST) for 1 h the membranes were incubated with primary antibodies specific for p-Akt and p-Src. GAPDH was used as housekeeping and loading control. The blots were then incubated with specific HRP-conjugated secondary antibodies and bands were visualized using ECL (Millipore) on Image Quant (LAS4010) chemiluminescence detection system. The band intensities were quantified using My Image Analysis software.

- concentration initiating inhibition of ET-1 mediated contraction [2]: 3 nM
- % contraction of aortic ring ([2]; 10 nM): about 35%
- % contraction of aortic ring ([2]; 30 nM): ~25%
- % contraction of aortic ring ([2]; 50 nM): about 20%
- Src-kinase expression [3]: marked reduction
SMILES: CCOC(=O)C1N=C1CCc1ccc(OC)cc1 (racemic) [Compound 1, Ethyl 3-(4-methoxyphenethyl)-2H-azirine-2-carboxylate]
- tubule formation ([1]; 75 nM): 100%
- tubulogenesis in 3D angiogenesis ([1]; 500 nM, 250 nM, 125 nM and 75 nM vs control): tubulogenesis inhibitory effect

— patent US20230234920A1, “Azirine Containing Compounds as Anti-Angiogenesis Agents and a Process for the Preparation Thereof” (COUNCIL OF SCIENTIFIC & INDUSTRIAL RESEARCH, priority 2020, published 2023)
